Laboratory results reported in ChEMBL document CHEMBL5608186, “Design, synthesis and structure-activity relationships of novel non-ketolides: 9-Oxime clarithromycin featured with seven-to thirteen-atom-length diamine linkers at 3-OH” (Eur J Med Chem, 2024).
Converted amounts (≈) assume the structure as drawn.

Experiments:
Assay type in all cases: functional
Streptococcus pneumoniae [1] = assay: Bactericidal activity against Streptococcus pneumoniae ATCC 49619 incubated for 16 to 20 hrs by CLSI based broth microdilution method; details: time 16-20 hrs
Haemophilus influenzae [2] = assay: Antibacterial activity against Haemophilus influenzae ATCC 49247 incubated for 16 to 20 hrs by CLSI based broth microdilution method; details: time 16-20 hrs
Haemophilus influenzae [3] = assay: Selectivity ratio of MBC for Haemophilus influenzae ATCC 49247 to MIC for Haemophilus influenzae ATCC 49247
Staphylococcus aureus [4] = assay: Bactericidal activity against methicillin-resistant Staphylococcus aureus PU 32 harboring i-ermA gene incubated for 16 to 20 hrs by CLSI based broth microdilution method; details: time 16-20 hrs
Streptococcus pneumoniae [5] = assay: Bactericidal activity against Streptococcus pneumoniae PU 09 harboring mef gene incubated for 16 to 20 hrs by CLSI based broth microdilution method; details: time 16-20 hrs
Staphylococcus aureus [6] = assay: Antibacterial activity against methicillin-resistant Staphylococcus aureus PU 20 harboring c-ermA gene incubated for 16 to 20 hrs by CLSI based broth microdilution method; details: time 16-20 hrs
Streptococcus pneumoniae [7] = assay: Bactericidal activity against Streptococcus pneumoniae 07P390 harboring c-erm gene incubated for 16 to 20 hrs by CLSI based broth microdilution method; details: time 16-20 hrs
Streptococcus pneumoniae [8] = assay: Selectivity ratio of MBC for Streptococcus pneumoniae PU 09 harboring mef gene to MIC for Streptococcus pneumoniae PU 09 harboring mef gene
Streptococcus pneumoniae [9] = assay: Selectivity ratio of MBC for Streptococcus pneumoniae 07P390 harboring c-erm gene to MIC for Streptococcus pneumoniae 07P390 harboring c-erm gene
Streptococcus pyogenes [10] = assay: Selectivity ratio of MBC for Streptococcus pyogenes 01-968 harboring i-ermB gene to MIC for Streptococcus pyogenes 01-968 harboring i-ermB gene
Haemophilus influenzae [11] = assay: Bactericidal activity against Haemophilus influenzae ATCC 49247 incubated for 16 to 20 hrs by CLSI based broth microdilution method; details: time 16-20 hrs
Streptococcus pneumoniae [12] = assay: Antibacterial activity against Streptococcus pneumoniae ATCC 49619 incubated for 16 to 20 hrs by CLSI based broth microdilution method; details: time 16-20 hrs
Streptococcus pyogenes [13] = assay: Antibacterial activity against Streptococcus pyogenes 01-968 harboring i-ermB gene incubated for 16 to 20 hrs by CLSI based broth microdilution method; details: time 16-20 hrs
Staphylococcus aureus [14] = assay: Bactericidal activity against methicillin-resistant Staphylococcus aureus PU 20 harboring c-ermA gene incubated for 16 to 20 hrs by CLSI based broth microdilution method; details: time 16-20 hrs
Streptococcus pneumoniae [15] = assay: Selectivity ratio of MBC for Streptococcus pneumoniae ATCC 49619 to MIC for Streptococcus pneumoniae ATCC 49619
Streptococcus pneumoniae [16] = assay: Antibacterial activity against Streptococcus pneumoniae PU 09 harboring mef gene incubated for 16 to 20 hrs by CLSI based broth microdilution method; details: time 16-20 hrs
Staphylococcus aureus [17] = assay: Selectivity ratio of MBC for methicillin-resistant Staphylococcus aureus PU 20 harboring c-ermA gene to MIC for methicillin-resistant Staphylococcus aureus PU 20 harboring c-ermA gene
Streptococcus pneumoniae [18] = assay: Antibacterial activity against Streptococcus pneumoniae 07P390 harboring c-erm gene incubated for 16 to 20 hrs by CLSI based broth microdilution method; details: time 16-20 hrs
Streptococcus pyogenes [19] = assay: Bactericidal activity against Streptococcus pyogenes 01-968 harboring i-ermB gene incubated for 16 to 20 hrs by CLSI based broth microdilution method; details: time 16-20 hrs
Staphylococcus aureus [20] = assay: Antibacterial activity against methicillin-resistant Staphylococcus aureus PU 32 harboring i-ermA gene incubated for 16 to 20 hrs by CLSI based broth microdilution method; details: time 16-20 hrs
Staphylococcus aureus [21] = assay: Selectivity ratio of MBC for methicillin-resistant Staphylococcus aureus PU 32 harboring i-ermA gene to MIC for methicillin-resistant Staphylococcus aureus PU 32 harboring i-ermA gene

SMILES | MBC (Streptococcus pneumoniae [1]) | MIC (Haemophilus influenzae [2]) | Selectivity ratio (Haemophilus influenzae [3]) | MBC (Staphylococcus aureus [4]) | MBC (Streptococcus pneumoniae [5]) | MIC (Staphylococcus aureus [6]) | MBC (Streptococcus pneumoniae [7]) | Selectivity ratio (Streptococcus pneumoniae [8]) | Selectivity ratio (Streptococcus pneumoniae [9]) | Selectivity ratio (Streptococcus pyogenes [10]) | MBC (Haemophilus influenzae [11]) | MIC (Streptococcus pneumoniae [12]) | MIC (Streptococcus pyogenes [13]) | MBC (Staphylococcus aureus [14]) | Selectivity ratio (Streptococcus pneumoniae [15]) | MIC (Streptococcus pneumoniae [16]) | MIC (Streptococcus pneumoniae [18]) | MBC (Streptococcus pyogenes [19]) | MIC (Staphylococcus aureus [20]) | Selectivity ratio (Staphylococcus aureus [21]) | also measured
CC[C@H]1OC(=O)[C@H](C)[C@@H](OC(=O)CCN2CCN(c3c(F)cc4c(=O)c(C(=O)O)cn(C5CC5)c4c3OC)CC2C)[C@H](C)[C@@H](O[C@@H]2O[C@H](C)C[C@H](N(C)C)[C@H]2O)[C@](C)(OC)C[C@@H](C)/C(=N\OCC#Cc2cncc(C(=O)NC)c2)[C@H](C)[C@H]2OC(=O)O[C@@]21C (stereo not given in full) | 1 µg/mL (≈ 0.811 µM) | 2 µg/mL (≈ 1.62 µM) | 1 | > 256 µg/mL | 4 µg/mL (≈ 3.25 µM) | 32 µg/mL (≈ 26 µM) | > 128 µg/mL | 4 | >8 | >8 | 2 µg/mL (≈ 1.62 µM) | 0.5 µg/mL (≈ 0.406 µM) | 16 µg/mL (≈ 13 µM) | 32 µg/mL (≈ 26 µM) | 2 | 1 µg/mL (≈ 0.811 µM) | 16 µg/mL (≈ 13 µM) | > 128 µg/mL | > 256 µg/mL |  | Selectivity ratio (Staphylococcus aureus [17]): 1
CC[C@H]1OC(=O)[C@H](C)[C@@H](OC(=O)CCNCCCCNc2cc3c(cc2F)c(=O)c(C(=O)O)cn3C2CC2)[C@H](C)[C@@H](O[C@@H]2O[C@H](C)C[C@H](N(C)C)[C@H]2O)[C@](C)(OC)C[C@@H](C)/C(=N\OC/C=C/c2ccc3c(c2)c(=O)c(C(N)=O)cn3CC)[C@H](C)[C@H]2OC(=O)O[C@@]21C | 0.12 µg/mL (≈ 0.0943 µM) | 8 µg/mL (≈ 6.29 µM) | 1 | > 256 µg/mL | 0.06 µg/mL (≈ 0.0472 µM) | > 256 µg/mL | 2 µg/mL (≈ 1.57 µM) | 1 | 8 | >8 | 8 µg/mL (≈ 6.29 µM) | 0.06 µg/mL (≈ 0.0472 µM) | 0.25 µg/mL (≈ 0.196 µM) | > 256 µg/mL | 2 | 0.06 µg/mL (≈ 0.0472 µM) | 0.25 µg/mL (≈ 0.196 µM) | > 2 µg/mL | 64 µg/mL (≈ 50.3 µM) | >4 | 
CC[C@H]1OC(=O)[C@H](C)[C@@H](OC(=O)CCNCCCCNc2cc3c(cc2F)c(=O)c(C(=O)O)cn3C2CC2)[C@H](C)[C@@H](O[C@@H]2O[C@H](C)C[C@H](N(C)C)[C@H]2O)[C@](C)(OC)C[C@@H](C)/C(=N\OCCCc2cncc(C(=O)NC)c2)[C@H](C)[C@H]2OC(=O)O[C@@]21C | 0.008 µg/mL (≈ 0.0067 µM) | 8 µg/mL (≈ 6.7 µM) | 2 | 32 µg/mL (≈ 26.8 µM) | 0.03 µg/mL (≈ 0.0251 µM) | > 256 µg/mL | 0.12 µg/mL (≈ 0.1 µM) | >=4 | 4 | >8 | 16 µg/mL (≈ 13.4 µM) | ≤ 0.008 µg/mL | 0.25 µg/mL (≈ 0.209 µM) | > 256 µg/mL | >=1 | ≤ 0.008 µg/mL | 0.03 µg/mL (≈ 0.0251 µM) | > 2 µg/mL | 32 µg/mL (≈ 26.8 µM) | 1 | 
CC[C@H]1OC(=O)[C@H](C)[C@@H](OC(=O)CCNCCCCCCCNc2cc3c(cc2F)c(=O)c(C(=O)O)cn3C2CC2)[C@H](C)[C@@H](O[C@@H]2O[C@H](C)C[C@H](N(C)C)[C@H]2O)[C@](C)(OC)C[C@@H](C)/C(=N\OC)[C@H](C)[C@H]2OC(=O)O[C@@]21C | 0.25 µg/mL (≈ 0.233 µM) | 256 µg/mL (≈ 238 µM) | 1 | 16 µg/mL (≈ 14.9 µM) | 2 µg/mL (≈ 1.86 µM) | 128 µg/mL (≈ 119 µM) | 16 µg/mL (≈ 14.9 µM) | 1 | 2 | 8 | 256 µg/mL (≈ 238 µM) | 0.125 µg/mL (≈ 0.116 µM) | 0.016 µg/mL (≈ 0.0149 µM) | > 256 µg/mL | 2 | 2 µg/mL (≈ 1.86 µM) | 8 µg/mL (≈ 7.45 µM) | 0.125 µg/mL (≈ 0.116 µM) | 2 µg/mL (≈ 1.86 µM) | 8 | 
